Reference: patent US20220235328A1, “HUMAN DISEASED AND NORMAL KIDNEY EPITHELIAL CELL CULTURES AND USES THEREOF” (DISCOVERYBIOMED, INC., priority 2019, published 2022)
pIC50: −log10 of the molar value. Values after ≈ are worked out from the molar mass of the structure shown.

Experiments:
[1] = tested on: Immortal Human ADPKD Cell Line; assay: TEER of cell monolayers pre- and post-amiloride; format: cell-based; conditions: amiloride treatment
Procedure: High-titer aliquots (10^9 pfu) of Lenti-SV40T, Lenti-hTERT-Neo and Lenti-CDK4 from Applied Biological Materials (ABM) (Richmond, BC, Canada) and Lenti-CDNK2 (Sigma-Aldrich) were diluted into transfection media to 10^7 pfu for cell challenge. In some cases, Lenti-hTERT and Lenti-CDK4 or Lenti-CDNK2 were combined as a newer immortalization method. huADPKD primary cultures were selected for immortalization based on a compelling genotype, an acceptable cell proliferation rate, and an ability to form cysts in 3D Matrigel culture. Mixed immortalized cultures were established by both methods from primary cultures where the lifetime of the cells were doubled from 5 passages (primary) to 10 passages (mixed immortal). The SV40T method was successful in generating immortal cell cultures that formed electrically tight polarized cell monolayers for transepithelial resistance (TEER) measurements and likely Ussing chamber-based electrophysiological recording of ion transport. These immortal human ADPKD cell monolayers may also be useful in fluid transport assays. Transepithelial/transendothelial electrical resistance (TEER) data for a new immortalized human ADPKD cell line are shown in Table 1 below.

[2] = tested on: ADPKD cells; assay: AVP-stimulated cystogenesis, 384-well high-content imaging; format: cell-based, human; conditions: 14 days culture in the presence of AVP versus absence
Procedure: Whole well automated high-content imaging was performed of ADPKD primary cells seeded in 384-well plates using the BioTek Cytation 5 system. Multiple well were captured per treatment. Uniform images were fed into deep learning algorithms for analysis. Stimuli like cAMP agonists and growth factors were not required, as the DBM RenalCyte media was sufficient to drive cystogenesis, as shown in FIG. 14.

[3] = tested on: ADPKD cell cultures; assay: Cyst prevention assay, 3D CellTiterGLO cell viability, CRC design; format: cell-based, human
Procedure: In this assay, the ADPKD cell cultures were incubated on 4 days before 1 week of treatment with drugs, media only or DMSO only.

[4] = tested on: ADPKD cell cultures; assay: Cyst reduction assay, 3D CellTiterGLO cell viability, CRC design; format: cell-based, human
Text: Results are shown in FIG. 26 for a cyst reduction assay.

[5] = tested on: primary huADPKD cells; assay: Cyst prevention cystogenesis bioassay, 3D biogel, 48-well, light microscopy; conditions: for overt cell cytotoxicity: concentrations tested; for effect on cyst appearance and expansion: midway point and end of assay, various concentrations
Procedure: Primary cells capable of 3D cystogenesis were seeded into a 3D biogel that is liquified before the gel sets. The gel set undisturbed within a humidified 5% CO2 incubator for 18 hours. An equal volume of DBM RenalCyte media was then overlaid in each well of a 48-well plate. “Add” feeds were performed until the well was full, and then half of the volume of media was removed and new media added at the same volume thereafter. […] In the cyst prevention assay, cysts were challenged as soon as they started to appear (small in dimension and few in number per well) with a test compound. The timing of addition of the test compound, frequency of addition of the test compound and concentration of the test compound varied. The effects on the cysts were followed by light-based microscopic imaging over time. In addition to visual inspection by light-based microscopic imaging occurring throughout the study, the number of cysts were counted per well at the end of the study and light-based endpoints were examined, such as 3D CellTiter-GLO® from Promega (Madison, Wis.) (to quantify viable cells), secretion (to quantify cell membrane integrity), and/or Caspase-GLO® (Promega) (to measure induction of apoptosis) in multiplex fashion. A modified version of this assay images after seeding the biogel each day for complete prevention of cyst formation versus counterpart controls over a 14 to 21-day period. Multiple replicates were performed, and cells from multiple donors were tested.

[6] = tested on: primary huADPKD cells; assay: Cyst attack cystogenesis bioassay, cyst image tracking; format: cell-based, human; conditions: 3 μM
Procedure: Primary cells capable of 3D cystogenesis were seeded as described above for the cyst prevention cytogenesis bioassay. In the cyst attack assay, cysts were allowed to develop to 12-24 in number and allowed to expand to a significant size. Specific cysts or cyst clusters were marked in each well. A test compound was then added to attack the already formed cysts to determine effects on the cysts. […] The timing of addition of the compound, frequency of addition of the compound and concentration of the compound varied.
A prominent cyst was imaged before treatment and daily for 6 days after treatment began. This larger cyst increased by 2.5 to 3.0 fold in the presence of the industry standard drug, tolvaptan, a vasopressin receptor antagonist.

[7] = Solubility limit noted in the cyst prevention assay; format: physicochemical
[8] = tested on: primary human ADPKD cultures; assay: 384-well cyst attack assay, 3D CellTiterGLO cell viability; format: cell-based
Procedure: (§1) A BioTek Cytation 5 (Biotek instruments, Winooski, Vt.) high content imaging and light-based high-throughput screening imaging system was used to image the huADPKD cells growing in 3D Biogels in 96-well and 384-well microliter plates. The Cytation 5 is coupled to a BioTek BioSpa 8 (a humidified CO2 incubator), such that trays can be extracted one at a time for analysis in the reader and then returned to the BioSpa.
(§2) Concentrations of 30-1000 nM were tested for each, and data were expressed as percent viability versus DMSO control (n=12). […] Statistical analysis was performed using ANOVA.

[9] = tested on: primary huADPKD cells; assay: 384-well cyst prevention assay, percent viability versus DMSO control; format: cell-based, human
Procedure: as §1
While no drivers are required, they can be used if desired. Edge wells are filled with saline to mitigate edge effects
Whole well automated high-content imaging was performed of ADPKD primary cells seeded in 384-well plates using the BioTek Cytation 5 system. Multiple well were captured per treatment. Uniform images were fed into deep learning algorithms for analysis.
as §2

[10] = from complete loss of viability signal
[11] = incubated 4 days before 1 week of treatment
[12] = incubated 10 days before 1 week of treatment

Q: Which “change of transepithelial resistance, in words” value [1] does the source give for `N=C(N)NC(=O)c1nc(Cl)c(N)nc1N` [Amiloride, amiloride] here?
A: increase in resistance

Q: Which cyst size [2] does the source give for `NC(=O)CC[C@@H]1NC(=O)[C@H](Cc2ccccc2)NC(=O)[C@H](Cc2ccc(O)cc2)NC(=O)[C@@H](N)CSSC[C@@H](C(=O)N2CCC[C@H]2C(=O)N[C@@H](CCCN=C(N)N)C(=O)NCC(N)=O)NC(=O)[C@H](CC(N)=O)NC1=O` [Arginine Vasopressin (AVP), Arginine Vasopressin] here?
A: more larger on average

Q: Which results are given for `CC(C)(CO)c1cc2cc(NC(=O)C3(c4ccc5c(c4)OC(F)(F)O5)CC3)c(F)cc2n1C[C@@H](O)CO` [VX-661]?
A: pIC50 ([3]; Homo sapiens, incubated 4 days before 1 week of treatment): 5.00; cytotoxicity [3, 10]: overt cytotoxicity; extent of inhibition, in words [3, 11]: complete inhibition to no signal; pIC50 ([4]; Homo sapiens, incubated 10 days before 1 week of treatment): 4.52; cytotoxicity [4, 10]: overt cytotoxicity; extent of inhibition, in words [4, 12]: complete inhibition to no signal

Q: With `Cc1ccc(NC(=O)C2(c3ccc4c(c3)OC(F)(F)O4)CC2)nc1-c1cccc(C(=O)O)c1` [VX-809] as the compound, how does the “extent of inhibition, in words” value [3, 11] read?
A: only a partial effect and only at the highest concentration

Q: What about the “extent of inhibition, in words” value [4, 12] of the same compound?
A: only a partial effect and only at the highest concentrations

Q: What does the source list for `COc1cc(Nc2c(C#N)cnc3cc(OCCCN4CCN(C)CC4)c(OC)cc23)c(Cl)cc1Cl` [bosutinib]?
A: overt cell cytotoxicity [5]: no overt cell cytotoxicity; effect on cyst appearance and expansion [5]: no effect; increase in size of a small cyst ([6]; in 1-2 days): 2 fold

Q: Which results are given for `CO[C@H]1C[C@@H]2CC[C@@H](C)[C@@](O)(O2)C(=O)C(=O)N2CCCC[C@H]2C(=O)O[C@H]([C@H](C)C[C@@H]2CC[C@@H](O)[C@H](OC)C2)CC(=O)[C@H](C)/C=C(\C)[C@@H](O)[C@@H](OC)C(=O)[C@H](C)C[C@H](C)/C=C/C=C/C=C/1C` [rapamycin]?
A: solubility [7]: ~30 µM (≈ 27.4 µg/mL); overt toxicity [6]: not overtly toxic

Q: Which inhibition at 10 µM ([8]; Homo sapiens, 10-fold higher concentration (10 μM), 2 weeks incubation, then 1-week treatment) does the source give for `Cc1ccccc1C(=O)Nc1ccc(C(=O)N2CCCC(O)c3cc(Cl)ccc32)c(C)c1` (stereo not shown) [tolvaptan] here?
A: ~20%

Q: What about the “efficacy, percent viability versus DMSO control” value ([8]; attack assay, 30-1000 nM) of the same compound?
A: ineffective

Q: What about the pIC50 ([9]; Homo sapiens, cyst prevention assays in 384-well plates, FIG. 24) of the same compound?
A: < 5.00

Q: And the “efficacy in cAMP stimulated assays” value ([9]; cAMP stimulated)?
A: only slightly more effective

Q: And the “concentrations at which effective” value ([9]; cyst prevention assays, FIG. 23)?
A: only at mid-micromolar concentrations

Q: And the “efficacy, percent viability versus DMSO control” value ([9]; prevention assay, 30-1000 nM)?
A: ineffective

Q: And the solubility [7]?
A: ~30 µM (≈ 13.5 µg/mL)

Q: What about the cyst expansion ([5]; 10 and 30 micromolar) of the same compound?
A: may have slowed cyst expansion

Q: And the overt cell cytotoxicity [5]?
A: no overt cell cytotoxicity

Q: And the “effect on cyst appearance and expansion” value [5]?
A: little effect

Q: And the “extent of inhibition, in words” value [4, 12]?
A: only a partial effect and only at the highest concentrations

Q: And the “size of the smaller cyst” value ([6]; 6 days)?
A: quickly reduced in size

Q: And the “size of the large cyst” value ([6]; week-long treatment)?
A: doubled in size but then decreased in size to a slightly reduced size
